Patent US20260184663A1, “INDENE COMPOUNDS, PHARMACEUTICAL COMPOSITIONS THEREOF, AND THEIR THERAPEUTIC APPLICATIONS” (NucMito Pharmaceuticals co. Ltd., priority 2022, published 2026)

Columns and labels:
Format in all cases: cell-based
[1] = test system: A431 (epidermoid carcinoma); test: Antiproliferative activity (CCK-8 cell viability), A431; conditions: Homo sapiens, 72 h, read-out: Antiproliferative activity in cancerous cells, A431 (inhibition of cell growth); for inhibition at 3.3 µM: A-431, Compound concentration: 3.3 μM; for inhibition at 10 µM: A-431, Compound concentration: 10 μM
In short: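 Cell viability of compound-treated A431 cells was measured with a Cell Counting Kit-8. Each well received 10 μL of CCK-8 after 72 h of compound exposure, followed by 4 h incubation at 37° C. and a 450 nm plate-reader measurement. Percent viability was calculated relative to DMSO controls across replicates.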

HepG2 (liver cancer) = test: Antiproliferative activity (CCK-8 cell viability), HepG2; conditions: Homo sapiens, 72 h, read-out: Antiproliferative activity in cancerous cells, HepG2 (inhibition of cell growth); for inhibition at 3.3 µM: Compound concentration: 3.3 μM; for inhibition at 10 µM: Compound concentration: 10 μM
In short: (§1)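 Cells were seeded at 2,000-5,000/well (HeLa in MEM, HepG2 and SW480 in DMEM, A549 in F-12K, all with 10% FBS) and treated with compound at 3.3, 10 or 30 μM for 72 h at 37° C. CCK-8 was added for 4 h, absorbance was read at 450 nm, and viability was expressed relative to DMSO-treated wells.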

[2] = test system: A549 (lung adenocarcinoma); test: Antiproliferative activity (CCK-8 cell viability), A549; conditions: Homo sapiens, 72 h, read-out: Antiproliferative activity in cancerous cells, A549 (inhibition of cell growth); for inhibition at 3.3 µM: Compound concentration: 3.3 μM; for inhibition at 10 µM: Compound concentration: 10 μM
In short: as §1

HeLa (cervical cancer) = test: Antiproliferative activity (CCK-8 cell viability), HeLa; conditions: Homo sapiens, 72 h, read-out: Antiproliferative activity in cancerous cells, HELA (inhibition of cell growth); for inhibition at 3.3 µM: Compound concentration: 3.3 μM; for inhibition at 10 µM: Compound concentration: 10 μM
In short: as §1

SW480 (colon cancer) = test: Antiproliferative activity (CCK-8 cell viability), SW480; conditions: Homo sapiens, 72 h, read-out: Antiproliferative activity in cancerous cells, SW480 (inhibition of cell growth); for inhibition at 3.3 µM: Compound concentration: 3.3 μM; for inhibition at 10 µM: Compound concentration: 10 μM
In short: as §1

[3] = test system: B16F10 (malignant melanoma); test: Antiproliferative activity (CCK-8 cell viability), B16F10; conditions: Mus musculus, 72 h, read-out: Antiproliferative activity in cancerous cells, B16F10 (inhibition of cell growth); for inhibition at 3.3 µM: B16-F10, Compound concentration: 3.3 μM; for inhibition at 10 µM: B16-F10, Compound concentration: 10 μM
In short: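 Attached B16F10 cells in 96-well plates were incubated with compound at 37° C for 72 h, followed by 10 μL CCK-8 reagent per well and a further 4 h incubation. A multi-well plate reader measured absorbance at 450 nm. Percent viability across replicates was calculated against DMSO vehicle-treated cells.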

[4] = test system: MDA-MB-231 (breast cancer); test: Antiproliferative activity (CCK-8 cell viability), MDA-MB-231; conditions: Homo sapiens, 72 h, read-out: Antiproliferative activity in cancerous cells, MDA-MB-231 (inhibition of cell growth); for inhibition at 3.3 µM: Compound concentration: 3.3 μM; for inhibition at 10 µM: Compound concentration: 10 μM
In short: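 In this CCK-8 viability assay, MDA-MB-231 cells maintained in Dulbecco's modified Eagle's medium containing 10% fetal bovine serum were placed in 96-well plates (2,000-5,000 cells/well) and treated with compound for 72 h at 37° C. A 4 h incubation with 10 μL CCK-8 followed, plates were read at 450 nm, and viability was expressed against DMSO vehicle wells across replicates.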

Structure (SMILES) | inhibition at 3.3 µM [1] [%] | inhibition at 10 µM [1] [%] | inhibition at 3.3 µM (HepG2 (liver cancer)) [%] | inhibition at 10 µM (HepG2 (liver cancer)) [%] | inhibition at 3.3 µM [2] [%] | inhibition at 10 µM [2] [%] | inhibition at 3.3 µM (HeLa (cervical cancer)) [%] | inhibition at 10 µM (HeLa (cervical cancer)) [%] | inhibition at 3.3 µM (SW480 (colon cancer)) [%] | inhibition at 10 µM (SW480 (colon cancer)) [%] | inhibition at 3.3 µM [3] [%] | inhibition at 10 µM [3] [%] | inhibition at 3.3 µM [4] [%] | inhibition at 10 µM [4] [%]
COc1cc(COCc2ccc(/C=C3/C(C)=C(CC(=O)O)c4cc(F)ccc43)cc2)ccc1F [B113, (Z)-2-(5-Fluoro-1-(4-(((4-fluoro-3-methoxybenzyl)oxy)methyl)benzylidene)-2-methyl-1H-inden-3-yl)acetic acid] | ≥ 50 | ≥ 50 | < 30 | < 30 | 30 to 50 | ≥ 50 | < 30 | ≥ 50 | < 30 | ≥ 50 | < 30 | < 30 | 30 to 50 | ≥ 50
CC1=C(CC(=O)O)c2cc(F)ccc2/C1=C\c1ccc(CCCc2ccccc2)cc1 [B114, (Z)-2-(5-Fluoro-2-methyl-1-(4-(3-phenylpropyl)benzylidene)-1H-inden-3-yl)acetic acid] | 30 to 50 | ≥ 50 | ≥ 50 | ≥ 50 | 30 to 50 | ≥ 50 | ≥ 50 | ≥ 50 | ≥ 50 | ≥ 50 | < 30 | < 30 | < 30 | < 30
CC1=C(CC(=O)O)c2cc(Cl)ccc2/C1=C\c1ccc(COCc2ccc(Cl)cc2)cc1 [B115, (Z)-2-(5-Chloro-1-(4-(((4-chlorobenzyl)oxy)methyl)benzylidene)-2-methyl-1H-inden-3-yl)acetic acid] | ≥ 50 | ≥ 50 | ≥ 50 | ≥ 50 | 30 to 50 | ≥ 50 | < 30 | ≥ 50 | < 30 | ≥ 50 | 30 to 50 | ≥ 50 | < 30 | < 30
CC1=C(CC(=O)O)c2cc(F)ccc2/C1=C\c1ccc(CCCCc2ccc(F)cc2)cc1 [B116, (Z)-2-(5-Fluoro-1-(4-(4-(4-fluorophenyl)butyl)benzylidene)-2-methyl-1H-inden-3-yl)acetic acid] | ≥ 50 | ≥ 50 | ≥ 50 | ≥ 50 | 30 to 50 | ≥ 50 | ≥ 50 | ≥ 50 | < 30 | ≥ 50 | 30 to 50 | 30 to 50 | < 30 | < 30
CC1=C(CC(=O)O)c2cc(F)ccc2/C1=C\c1ccc(CCCc2ccc(F)cc2)cc1 [B117, (Z)-2-(5-Fluoro-1-(4-(3-(4-fluorophenyl)propyl)benzylidene)-2-methyl-1H-inden-3-yl)acetic acid] | 30 to 50 | ≥ 50 | ≥ 50 | ≥ 50 | 30 to 50 | ≥ 50 | < 30 | ≥ 50 | ≥ 50 | ≥ 50 | < 30 | ≥ 50 | < 30 | < 30
COc1ccc2c(c1)C(CC(=O)O)=C(C)/C2=C/c1ccc(COCc2ccc(Cl)cc2)cc1 [B118, (Z)-2-(1-(4-(((4-Chlorobenzyl)oxy)methyl)benzylidene)-5-methoxy-2-methyl-1H-inden-3-yl)acetic acid] | ≥ 50 | ≥ 50 | < 30 | ≥ 50 | 30 to 50 | ≥ 50 | < 30 | ≥ 50 | ≥ 50 | ≥ 50 | ≥ 50 | ≥ 50 | < 30 | < 30
CC1=C(CC(=O)O)c2cc(F)ccc2/C1=C\c1ccc(CCCc2ccc(Cl)cc2)cc1 [B119, (Z)-2-(1-(4-(3-(4-Chlorophenyl)propyl)benzylidene)-5-fluoro-2-methyl-1H-inden-3-yl)acetic acid] | ≥ 50 | ≥ 50 | ≥ 50 | ≥ 50 | 30 to 50 | ≥ 50 | < 30 | ≥ 50 | ≥ 50 | ≥ 50 | < 30 | ≥ 50 | < 30 | < 30
CC1=C(CC(=O)O)c2cc(Br)ccc2/C1=C\c1ccc(COCc2ccc(Cl)cc2)cc1 [B120, (Z)-2-(5-Bromo-1-(4-(((4-chlorobenzyl)oxy)methyl)benzylidene)-2-methyl-1H-inden-3-yl)acetic acid] | ≥ 50 | ≥ 50 | 30 to 50 | ≥ 50 | 30 to 50 | ≥ 50 | ≥ 50 | ≥ 50 | < 30 | ≥ 50 | < 30 | < 30 | < 30 | < 30
CCc1ccc2c(c1)/C(=C\c1ccc(COCc3ccc(F)cc3)cc1)C(C)=C2CC(=O)O [B121, (Z)-2-(6-Ethyl-1-(4-(((4-fluorobenzyl)oxy)methyl)benzylidene)-2-methyl-1H-inden-3-yl)acetic acid] | ≥ 50 | ≥ 50 | < 30 | ≥ 50 | 30 to 50 | ≥ 50 | < 30 | ≥ 50 | < 30 | 30 to 50 | 30 to 50 | 30 to 50 | < 30 | < 30
CCc1ccc2c(c1)C(CC(=O)O)=C(C)/C2=C/c1ccc(COCc2ccc(Cl)cc2)cc1 [B122, (Z)-2-(1-(4-(((4-Chlorobenzyl)oxy)methyl)benzylidene)-5-ethyl-2-methyl-1H-inden-3-yl)acetic acid] | ≥ 50 | ≥ 50 | ≥ 50 | ≥ 50 | 30 to 50 | ≥ 50 | < 30 | ≥ 50 | 30 to 50 | ≥ 50 | 30 to 50 | ≥ 50 | < 30 | ≥ 50
CC1=C(CC(=O)O)c2cc(C)ccc2/C1=C\c1ccc(CCCc2ccc(Cl)cc2)cc1 [B123, (Z)-2-(1-(4-(3-(4-Chlorophenyl)propyl)benzylidene)-2,5-dimethyl-1H-inden-3-yl)acetic acid] | ≥ 50 | ≥ 50 | 30 to 50 | ≥ 50 | ≥ 50 | ≥ 50 | < 30 | ≥ 50 | 30 to 50 | ≥ 50 | ≥ 50 | ≥ 50 | < 30 | ≥ 50
